Tests used:
Format in all cases: functional
Bacillus subtilis = experiment: Antibacterial activity against Bacillus subtilis assessed as growth inhibition by microtitration method
Pseudomonas aeruginosa = experiment: Antibacterial activity against Pseudomonas aeruginosa assessed as growth inhibition by microtitration method
Escherichia coli = experiment: Antibacterial activity against Escherichia coli assessed as growth inhibition by microtitration method
Staphylococcus aureus = experiment: Antibacterial activity against Staphylococcus aureus assessed as growth inhibition by microtitration method
[1] = test system: Staphylococcus epidermidis; experiment: Antibacterial activity against Staphylococcus epidermidis assessed as growth inhibition by microtitration method
Klebsiella aerogenes = experiment: Antibacterial activity against Enterobacter aerogenes assessed as growth inhibition by microtitration method

Row | MIC (Bacillus subtilis) [µg/mL] | MIC (Pseudomonas aeruginosa) [µg/mL] | MIC (Escherichia coli) [µg/mL] | MIC (Staphylococcus aureus) [µg/mL] | MIC [1] [µg/mL] | MIC (Klebsiella aerogenes) [µg/mL] | Structure (SMILES)
1 | 25 | 25 | 25 | 25 | 25 | 25 | CCOC(=O)[C@@H](Cc1ccccc1)NC(=O)c1cn(CC)c2cc(C(F)(F)F)ccc2c1=O
2 | 25 | 6.25 | 12.5 | 25 | 6.25 | 12.5 | CCn1cc(C(=O)N[C@@H](CC(C)C)C(=O)O)c(=O)c2ccc(C(F)(F)F)cc21
3 | 50 | 3.12 | 12.5 | 12.5 | 3.12 | 6.25 | CCn1cc(C(=O)N[C@@H](Cc2ccccc2)C(=O)O)c(=O)c2ccc(C(F)(F)F)cc21
4 | 50 | 12.5 | 12.5 | 25 | 25 | 25 | CCn1cc(C(=O)N[C@H](C)C(=O)O)c(=O)c2ccc(C(F)(F)F)cc21
5 | 25 | 25 | 25 | 25 | 25 | 12.5 | CCn1cc(C(=O)N[C@H](Cc2ccccc2)C(=O)O)c(=O)c2ccc(C(F)(F)F)cc21
6 | 25 | 6.25 | 12.5 | 25 | 6.25 | 6.25 | CCn1cc(C(=O)N2CCC[C@H]2C(=O)O)c(=O)c2ccc(C(F)(F)F)cc21
7 | 50 | 6.25 | 25 | 25 | 25 | 12.5 | CCOC(=O)[C@@H]1CCCN1C(=O)c1cn(CC)c2cc(C(F)(F)F)ccc2c1=O
8 | 50 | 25 | 12.5 | 12.5 | 6.25 | 12.5 | CCn1cc(C(=O)N[C@@H](C)C(=O)O)c(=O)c2ccc(C(F)(F)F)cc21
9 | 50 | 6.25 | 12.5 | 12.5 | 6.25 | 3.12 | CCn1cc(C(=O)N[C@H](C(=O)O)C(C)C)c(=O)c2ccc(C(F)(F)F)cc21
10 | 25 | 6.25 | 12.5 | 25 | 6.25 | 12.5 | CC[C@@H](C)[C@H](NC(=O)c1cn(CC)c2cc(C(F)(F)F)ccc2c1=O)C(=O)O
11 | 50 | 25 | 25 | 25 | 25 | 50 | C[C@H](NC(=O)c1cnc2cc(C(F)(F)F)ccc2c1O)C(=O)O
12 | 50 | 25 | 25 | 25 | 25 | 25 | CC(C)[C@H](NC(=O)c1cnc2cc(C(F)(F)F)ccc2c1O)C(=O)O
13 | 50 | 25 | 25 | 25 | 25 | 25 | CC[C@@H](C)[C@H](NC(=O)c1cnc2cc(C(F)(F)F)ccc2c1O)C(=O)O
14 | 50 | 25 | 25 | 25 | 25 | 25 | CC(C)C[C@H](NC(=O)c1cnc2cc(C(F)(F)F)ccc2c1O)C(=O)O
15 | 50 | 25 | 25 | 12.5 | 25 | 25 | O=C(N[C@@H](Cc1ccccc1)C(=O)O)c1cnc2cc(C(F)(F)F)ccc2c1O
16 | 50 | 6.12 | 25 | 25 | 12.5 | 25 | C[C@@H](NC(=O)c1cnc2cc(C(F)(F)F)ccc2c1O)C(=O)O
17 | 50 | 6.12 | 25 | 25 | 25 | 12.5 | O=C(N[C@H](Cc1ccccc1)C(=O)O)c1cnc2cc(C(F)(F)F)ccc2c1O
18 | 50 | 25 | 25 | 25 | 50 | 25 | O=C(O)[C@@H]1CCCN1C(=O)c1cnc2cc(C(F)(F)F)ccc2c1O
19 | 25 | 25 | 25 | 50 | 6.25 | 12.5 | CCOC(=O)[C@H](C)NC(=O)c1cn(CC)c2cc(C(F)(F)F)ccc2c1=O
20 | 25 | 25 | 25 | 25 | 25 | 12.5 | CCOC(=O)[C@@H](NC(=O)c1cn(CC)c2cc(C(F)(F)F)ccc2c1=O)C(C)C
21 | 50 | 25 | 25 | 25 | 25 | 12.5 | CCOC(=O)[C@@H](NC(=O)c1cn(CC)c2cc(C(F)(F)F)ccc2c1=O)[C@H](C)CC
22 | 50 | 6.25 | 25 | 25 | 25 | 12.5 | CCOC(=O)[C@H](CC(C)C)NC(=O)c1cn(CC)c2cc(C(F)(F)F)ccc2c1=O
23 | 50 | 6.25 | 12.5 | 25 | 6.25 | 6.25 | CCOC(=O)[C@H](Cc1ccccc1)NC(=O)c1cn(CC)c2cc(C(F)(F)F)ccc2c1=O
24 | 25 | 6.12 | 25 | 25 | 25 | 12.5 | CCOC(=O)[C@@H](C)NC(=O)c1cn(CC)c2cc(C(F)(F)F)ccc2c1=O
25 | 0.048 | 0.012 |  | 0.048 | 0.012 | 0.012 | O=C(O)c1cn(C2CC2)c2cc(N3CCNCC3)c(F)cc2c1=O [CIPROFLOXACIN]

From ChEMBL document CHEMBL3046369, “Synthesis of novel optically pure -amino acid functionalised-7-trifluoromethyl substituted quinolone derivatives and their antibacterial activity” (2013)
